Read-outs that look alike come from different tables or passages of the source.
Assays:
IMP-1 = IMP-1 (Serratia marcescens, UniProt P52699); assay: Enzyme activity: determination of IC50, fluorescence assay with CCF2-FA substrate; assay type: biochemical; settings: CCF2-FA 1.25 μM, 2 hours at 25° C., read-out: IMP1 IC50
In short: (§1)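 Enzyme (1 pM NDM-1, 2 pM IMP-1, 30 pM VIM-1) incubated with inhibitor (20 to 0.00063 μM) and 1.25 μM CCF2-FA in 100 mM KH2PO4 pH 7, 0.005% Tween-20, 10 μM ZnSO4, 2 h at 25 °C. Fluorescence read at 460 nm (ex 405 nm); IC50 by 4-parameter fit.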

NDM-1 = NDM-1 (Klebsiella pneumoniae, UniProt C7C422); assay: as above; assay type: biochemical; settings: CCF2-FA 1.25 μM, 2 hours at 25° C., read-out: NDM1 IC50
NDM-1, sequence (C7C422 29-270, looked up, species assumed): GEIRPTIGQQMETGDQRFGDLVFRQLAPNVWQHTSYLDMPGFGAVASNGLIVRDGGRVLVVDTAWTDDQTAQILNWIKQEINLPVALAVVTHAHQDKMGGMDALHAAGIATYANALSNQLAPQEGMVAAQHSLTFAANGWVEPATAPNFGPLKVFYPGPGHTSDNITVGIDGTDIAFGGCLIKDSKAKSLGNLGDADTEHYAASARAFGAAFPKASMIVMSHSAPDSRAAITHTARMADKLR
In short: as §1

VIM-1 = VIM-1 (Pseudomonas aeruginosa, UniProt A0A0F7KYQ8); assay: as above; assay type: biochemical; settings: CCF2-FA 1.25 μM, 2 hours at 25° C., read-out: VIM1 IC50
In short: as §1

[1] = system: Escherichia coli expressing NDM-1 (CLB30016); assay: Antibiotic potentiation activity: synergistic concentration (MITC95) with imipenem, growth by OD600; assay type: cell-based
In short: (§2)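 Strains grown overnight at 35° C, resuspended in saline, diluted 1:100 into 1.1×CAMHB; imipenem at 1 μg/ml or 4 μg/ml with test compound 200 μM to 0.195 μM. Incubated 22 hours to 24 hours at 35° C, OD600 read; MITC95 is lowest compound concentration inhibiting 95% of growth.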

[2] = system: Klebsiella pneumoniae expressing VIM-1 (IHMA599644); assay: as above; assay type: cell-based
In short: as §2

[3] = system: Serratia marcescens expressing IMP-1 (CL5741); assay: as above; assay type: cell-based
In short: as §2

[4] = 95% inhibition of bacterial growth, strain CLB30016
[5] = 95% inhibition of bacterial growth, strain IHMA599644
[6] = 95% inhibition of bacterial growth, strain CL5741
[7] = E. coli CLB30016 (NDM-1), 95% inhibition of growth
[8] = K. pneumoniae IHMA599644 (VIM-1), 95% inhibition of growth
[9] = S. marcescens CL5741 (IMP-1), 95% inhibition of growth

IMP-1, sequence (P52699 19-246, looked up, species assumed): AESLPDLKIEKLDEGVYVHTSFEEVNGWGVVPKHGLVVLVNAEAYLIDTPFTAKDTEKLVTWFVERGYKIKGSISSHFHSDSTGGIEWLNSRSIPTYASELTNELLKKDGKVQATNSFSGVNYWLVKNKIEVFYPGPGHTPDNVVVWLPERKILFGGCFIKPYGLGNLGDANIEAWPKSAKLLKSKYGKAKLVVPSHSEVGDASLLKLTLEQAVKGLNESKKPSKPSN

Row | Structure (SMILES) | IC50 (IMP-1; enzyme 2 pM) [nM] | IC50 (NDM-1; enzyme 1 pM) [nM] | IC50 (VIM-1; enzyme 30 pM) [nM] | NDM1 EC30016 MITC95 [1, 4] [µM] | VIM1 KP599644 MITC95 [2, 5] [µM] | IMP1 SM5741 MITC95 [3, 6] [µM] | IC50 (IMP-1; IMP-1 enzyme 2 pM) [nM] | IC50 (NDM-1; NDM-1 enzyme 1 pM) [nM] | IC50 (VIM-1; VIM-1 enzyme 30 pM) [nM] | NDM1 EC30016 MITC95 [1, 7] [µM] | VIM1 KP599644 MITC95 [2, 8] [µM] | IMP1 SM5741 MITC95 [3, 9] [µM]
1 | CC(C)C[C@H](C(=O)O)[C@H](Cc1ccc(S(C)(=O)=O)cc1)c1nn[nH]n1 [Example 50, (S)-4-methyl-2-((S)-2-(4-(methylsulfonyl)phenyl)-1-(2H-tetrazol-5-yl)ethyl)pentanoic acid] | 100 | 47 | 6.6 | 25 | 50 | 6.2 | – | – | – | – | – | –
2 | CCC[C@H](C(=O)O)[C@H](Cc1cnc(S(C)(=O)=O)nc1)c1nnn[nH]1 [Example 286, (S)-2-((S)-2-(2-(methylsulfonyl)pyrimidin-5-yl)-1-(1H-tetrazol-5-yl)ethyl)pentanoic acid] | – | – | – | – | – | – | > 20000 | 4600 | 37 | 25 | 18.8 | >200
3 | CCC[C@H](C(=O)O)[C@H](Cc1ccc(C2CCN(C=N)C2)cc1)c1nnn[nH]1 (stereo partly drawn) [Example 415, (2S)-2-((1S)-2-(4-(1-(iminomethyl)pyrrolidin-3-yl)phenyl)-1-(1H-tetrazol-5-yl)ethyl)pentanoic acid] | – | – | – | – | – | – | 390 | 121 | 4.32 | 9.375 | 18.75 | 12.5
4 | CCC[C@H](C(=O)O)[C@H](Cc1ccc(N2CCN3CCCC3C2)cc1)c1nn[nH]n1 (stereo partly drawn) [Example 232, (2S)-2-[(1S)-2-[4-(hexahydropyrrolo[1,2-a]pyrazin-2(1H)-yl)phenyl]-1-(2H-tetrazol-5-yl)ethyl]pentanoic acid] | 420 | 180 | 90 | 12.5 | 50 | 12.5 | – | – | – | – | – | –
5 | CC(C)(C)[C@H](C(=O)O)[C@H](Cc1ccc(N)nc1)c1nnn[nH]1 [Example 123, (2R,3S)-4-(6-aminopyridin-3-yl)-2-(tert-butyl)-3-(1H-tetrazol-5-yl)butanoic acid] | > 20000 | 1100 | 590 | 3.1 | 50 | >200 | – | – | – | – | – | –
6 | CC(C)C[C@H](C(=O)O)[C@H](Cc1ccc(-c2ccc(N)nc2)nc1)c1nn[nH]n1 [Example 176, (2S)-2-[(1S)-2-(6′-amino-2,3′-bipyridin-5-yl)-1-(2H-tetrazol-5-yl)ethyl]-4-methylpentanoic acid] | 150 | 25 | 5.7 | 16 | 25 | 6.2 | – | – | – | – | – | –
7 | CCC[C@H](C(=O)O)[C@H](Cc1ccc(C(=O)NCC2CC2)cc1)c1nnn[nH]1 [Example 282, (2S)-2-[(1S)-2-{4-[(cyclopropylmethyl)carbamoyl]phenyl}-1-(1H-tetrazol-5-yl)ethyl]pentanoic acid] | – | – | – | – | – | – | 730 | 98 | 19 | 18.8 | 50 | 50
8 | CC(C)C[C@H](C(=O)O)[C@H](Cc1ccc(NCCC(N)C(F)(F)F)nc1)c1nnn[nH]1 (stereo partly drawn) [Example 320, (2S)-2-[(1S)-2-{6-[(3-amino-4,4,4-trifluorobutyl)amino]pyridin-3-yl}-1-(1H-tetrazol-5-yl)ethyl]-4-methylpentanoic acid] | – | – | – | – | – | – | 320 | 83 | 15 | 1.6 | 50 | 12.5
9 | CNC(=O)C1CCCN(c2ccc(C[C@H](c3nnn[nH]3)[C@H](CC(C)C)C(=O)O)cn2)C1 (stereo partly drawn) [Example 311, (2S)-4-methyl-2-[(1S)-2-{6-[3-(methylcarbamoyl)piperidin-1-yl]pyridin-3-yl}-1-(1H-tetrazol-5-yl)ethyl] pentanoic acid] | – | – | – | – | – | – | 150 | 87 | 26 | 6.2 | 100 | 9.4
